Measured values reported in paper PMC10624628 (2023).

What was measured:
[1] = test system: SAMURI / 17-mer substrate RNA (RNA, ribozyme) GGUUGAAGGCAUGGCUCAGGGACUUCGGUCCGCUGCAGUCAGUAUGUCC/ACAUACUGAGCCUUCAA; experiment: Michaelis-Menten fit of kobs, alkylation of Cy5-labelled substrate, denaturing PAGE; details: 120 mM KCl, 5 mM NaCl, 10 mM MgCl2; 50 mM HEPES, pH 7.5, 37 °C; apparent; 32.6 ± 2.2 µM at 0.5 mM Mg2+; covalent transfer to substrate
[2] = test system: SAMURI / 17-mer substrate RNA (RNA, ribozyme) GGUUGAAGGCAUGGCUCAGGGACUUCGGUCCGCUGCAGUCAGUAUGUCC/ACAUACUGAGCCUUCAA; experiment: inhibition of SAMURI trans-propargylation, PAGE; details: 120 mM KCl, 5 mM NaCl, 10 mM MgCl2; pH 7.5, 37 °C, 1 h; no competition with 10 µM ProSeDMA up to 1 mM SAM; methylates substrate at 3 mM

SMILES	Km,app [1]	binding [2]
C#CC[Se+](CCC(N)C(N)=O)C[C@H]1O[C@@H](n2cnc3c(N)nc(N)nc32)[C@H](O)[C@@H]1O (some centres unmarked)	8.9 ± 1.9 µM	–
C[S+](CC[C@H](N)C(=O)O)C[C@H]1O[C@@H](n2cnc3c(N)ncnc32)[C@H](O)[C@@H]1O (some centres unmarked)	–	weak
